Results published in patent publication US9989535B2, “Methods and reagents for analyzing protein-protein interfaces” (Warp Drive Bio, Inc., priority 2015, dated 2018).

Experiments:
[1] = target: T1, PTP1BS187C lite/FKBP12 (Homo sapiens, UniProt P18031+P62942, C121S/C32S/C92V/S187C); assay: Ternary complex formation by SEC and SDS-PAGE; type: binding; details: SEC profile and SDS-PAGE of elution peaks
T1 construct: residues 1-293 containing C32S/C92V/C121S/S187C; made in house
Description: A 1:2:2 molar ratio of compound, presenter protein, and target protein are mixed together in 12.5 mM HEPES pH 7.4, 75 mM NaCl buffer containing 2% DMSO. The reaction is incubated at 37° C. for 30 min, followed by overnight incubation at room temperature. Pure complex is isolated by Size Exclusion Chromatography (SEC) purification. The reaction mixture is directly injected on a Superdex 75 column (CV 120 mL) pre-equilibrated with buffer containing 12.5 mM HEPES pH 7.4, 75 mM NaCl. Complex elutes at a higher molecular weight than unreacted target protein and presenter protein. To confirm presence of complex in the elution peak, samples are assessed by SDS-PAGE.
Experimental Protocol: A 1:3:3 molar ratio of C3-SLF, FKBP12, and PTP1BS187C lite are mixed together in 12.5 mM HEPES pH 7.4, 75 mM NaCl buffer containing 4% DMSO. The reaction is incubated at 37° C. for 30 min, followed by overnight incubation at room temperature. Pure complex is isolated by Size Exclusion Chromatography (SEC) purification. The reaction mixture is directly injected on a Superdex 75 column (CV 120 mL) pre-equilibrated with buffer containing 12.5 mM HEPES pH 7.4, 75 mM NaCl. […] To confirm the presence of PTP1BS187C lite and FKBP12 in the elution peak, samples are also assessed by SDS-PAGE. […]

[2] = target: T2, FKBP12-PTP1BS187C (Homo sapiens, UniProt P18031+P62942, C121S/C32S/C92V/S187C); assay: Crystal structure of FKBP12-C3SLF-PTP1BS187C ternary complex
T2 construct: residues 1-293 containing C32S/C92V/C121S/S187C; made in house
T2 sequence (P18031 1-293 C32S/C92V/C121S/S187C limits assumed): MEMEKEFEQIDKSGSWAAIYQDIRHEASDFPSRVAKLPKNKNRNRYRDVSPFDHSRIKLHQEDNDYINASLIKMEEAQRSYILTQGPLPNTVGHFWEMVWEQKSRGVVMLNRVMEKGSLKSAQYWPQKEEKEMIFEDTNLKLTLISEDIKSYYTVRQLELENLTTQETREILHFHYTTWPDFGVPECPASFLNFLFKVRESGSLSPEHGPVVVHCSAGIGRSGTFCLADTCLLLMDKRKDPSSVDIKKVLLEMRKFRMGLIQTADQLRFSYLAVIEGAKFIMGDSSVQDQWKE
T2 sequence (P62942 whole entry, the tested form may be a part): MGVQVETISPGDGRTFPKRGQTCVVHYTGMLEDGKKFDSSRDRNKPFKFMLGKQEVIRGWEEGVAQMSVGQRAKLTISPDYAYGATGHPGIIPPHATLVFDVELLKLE
Description: Experimental Protocol: […] and FKBP12 were added to PTP1B[…] lite at 3:1 molar excess in 12.5 mM HEPES pH 7.4, 75 mM NaCl buffer, 4% DMSO, and incubated 36-72 hours at 4° C. Pure complex was isolated by size exclusion chromatography on a Superdex 75 column in 12.5 mM HEPES pH 7.4 and 75 mM NaCl. Purified complex (at 15 mg/ml) was subjected to crystallization screening at 20° C. using sitting drop vapor diffusion method. Crystals were grown in a well solution containing 0.2 M Magnesium Acetate, 20% w/v PEG 3350. For data collection, crystals were transferred to a solution containing mother liquor supplemented with 25% PEG400, and then frozen in liquid nitrogen. Diffraction datasets were collected at the Advanced Photon Source (APS) and processed with the XDS program. Molecular replacement solutions were obtained using the program PHASER in the CCP4 suite, using the published structure of FKBP12 (PDB-ID 2PPN) and PTP1B (PDB-ID 2NT7) as search models. Subsequent model building and refinement were performed according to standard protocols with the software packages CCP4 and COOT.

[3] = target: T3, KRASGTP/G12C (Homo sapiens, UniProt P01116+P62942, G12C); assay: Cross-linking gel shift assay (12% SDS-PAGE), with or without FKBP12; type: binding; details: 60 μM KRAS, 180 μM FKBP12, 180 μM ligand, quenched by MMTS
T3 construct: KRASGTP/G12C (in-house, residues 1-169); made in house
Description: In parallel to mass spectrometry analysis, cross-linking reactions with C3- or C4-SLF were subjected to gel shift assay using 12% SDS-PAGE in the presence or absence of FKBP12 at the same experimental condition described above except that cross-linking reactions were set up at higher concentrations (60 μM KRAS, 180 μM FKBP12, and 180 μM C3- or C4-SLF) and they were quenched by MMTS to terminate the reaction.

[4] = target: MCL1S245C/FKBP52 (Homo sapiens, UniProt Q02790+Q07820, C286S/S245C); assay: Crystal structure of MCL1S245C/C3SLF/FKBP52 ternary complex; details: 3.0 Å
Chain of MCL1S245C/FKBP52 (Q07820 172-327 S245C/C286S): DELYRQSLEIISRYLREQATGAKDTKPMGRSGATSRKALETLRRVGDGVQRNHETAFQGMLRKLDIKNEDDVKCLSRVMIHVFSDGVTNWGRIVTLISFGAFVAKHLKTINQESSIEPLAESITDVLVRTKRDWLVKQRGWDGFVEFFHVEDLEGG
Chain of MCL1S245C/FKBP52 (Q02790 1-140): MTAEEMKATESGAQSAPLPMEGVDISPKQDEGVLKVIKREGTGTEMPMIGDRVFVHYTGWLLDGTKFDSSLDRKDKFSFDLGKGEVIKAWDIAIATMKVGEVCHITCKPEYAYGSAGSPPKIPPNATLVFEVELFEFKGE
Description: Experimental Protocol: […] and FKBP52 were mixed with MCL1[…] lite at 3:1 molar excess in 12.5 mM HEPES pH 7.4, 75 mM NaCl buffer, 2% DMSO, and incubated 24-48 hours at 4° C. Pure complex was isolated by size exclusion chromatography on a Superdex 75 column in 12.5 mM HEPES pH 7.4 and 75 mM NaCl. Purified complex (at 15 mg/ml) was subjected to crystallization screening at 20° C. using sitting drop vapor diffusion method. Crystals were grown in a well solution containing 2.1 M Malic acid. For data collection, crystals were transferred to a solution containing mother liquor supplemented with 20% glycerol, and then flash-frozen in liquid nitrogen. 3.0 Å resolution diffraction dataset was measured at the Advanced Photon Source (APS) and processed with the XDS program. Molecular replacement solutions were obtained using the program PHASER in the CCP4 suite, using the published structure of FKBP52 (PDB-ID 1N1A) and […] (PDB-ID 3MK8) as search models. Subsequent model building and refinement were performed according to standard protocols with the software packages CCP4 and COOT.

[5] = target: T3, KRASGTP/G12C; assay: Disulfide cross-linking efficiency by mass spectrometry, with or without FKBP12; type: binding; details: 2 μM KRAS, 10 μM ligand, 4 hours RT, MS
Description: Experimental protocol: In order to follow the kinetics of disulfide crosslinking reactions, Agilent 6230 TOF-LC/MS and Agilent 1260 HPLC instruments employing a AdvanceBio RP-mAb C4 column (2.1×100 mm, 3.5 μm) and equipped with an auto-sampler were used. HPLC grade acetonitrile and water (each containing 1.0 mM ammonium formate and 1% formic acid by volume) were used as mobile phase with the following ramp: 0.6 ml/min flow rate, water:acetonitrile=95:5 from 0.0 to 13.0 min ramping to water:acetonitrile=5:95 from 13.0 to 17.0 min. Total time=17.0 min.
All crosslinking reactions were performed in 1.5 mL amber colored glass vials equipped with 0.5 mL glass inserts. A water-soluble peptide (SEQ ID NO: 1: […]) was employed as an internal standard. Although the actual sequence of the internal standard is inconsequential, choice of amino acid residues were critical to avoid interference in the crosslinking assays. […] All reactions and standard solutions were prepared in HEPES (pH 7.4, 1.0 mM MgCl2) buffer.
Prior to every reaction, a standard curve was obtained for the individual components using a series of standard solutions (an example of standard curve analysis for FKBP12 is shown in Table 3 below). Using the data from standard curve, μmol of protein samples were plotted against the ratio of areas (sample:std) and a linear fit (y=mx+c) was employed to obtain the slope and intercept. The value of slope and intercept involved in these standard curves were accounted for during evaluation of the substrate and product concentration before and during the course of the reaction. For every substrate/product, an initial injection was followed up by a blank injection to verify presence of any residual protein/reagents. Based on this analysis the sequence of auto-sampler can be adjusted to included appropriate number of blank injections for removal of residual components, if any. The MS spectra were analyzed using Agilent MassHunter v B.07.0 software.
In a representative experiment to assess the presenter dependency of ligand cross-linking on the target protein, KRASGTP/G12C and either C3- or C4-SLF ligand were incubated in the presence or absence of FKBP12 at concentrations of 2 μM KRAS, 10 μM FKBP12, 10 μM C3- or C4-SLF for 4 hours at room temperature in 12.5 mM HEPES pH 7.4, 75 mM NaCl, 1 mM MgCl2, 3% DMSO. Analysis of the amount of KRAS undergoing disulfide cross-linking with the ligand using the method above.

T1 sequence (P18031 1-293 C32S/C92V/C121S/S187C limits assumed): as the sequence (P18031 1-293 C32S/C92V/C121S/S187C limits assumed) above
T1 sequence (P62942 whole entry, the tested form may be a part): as the sequence (P62942 whole entry, the tested form may be a part) above

CCC(C)(C)C(=O)C(=O)N1CCCC[C@H]1C(=O)O[C@H](CCc1ccc(OC)c(OC)c1)c1cccc(NC(=O)CCSSc2ccccn2)c1 [Compound C3-SLF, (R)-3-(3,4-dimethoxyphenyl)-1-(3-(3-(pyridin-2-yldisulfanyl)propanamido)phenyl)propyl (S)-1-(3,3-dimethyl-2-oxopentanoyl)piperidine-2-carboxylate]
Formation of PTP1BS187C lite/C3-SLF/FKBP12 complex [1]: confirm the formation | Buried surface area of ligand [2]: 615 Å^2 | Ligand cross-linking efficiency in the presence of FKBP12, gel shift [3]: boosted significantly | Buried surface area of the complex contributed by ligand [4]: 606 Å2 | % × link to KRAS ([5]; FKBP12 absent (−)): 9.6% | % × link to KRAS ([5]; FKBP12 present (+) 10 μM): 47.5%
